According to patent US9844226B2 (AJINOMOTO CO., INC., priority 2009, dated 2017):
Entries after “also recorded” stand apart in the source; their conditions may differ.

Key:
[1] = Stability (statement only); assay type: physicochemical; conditions: compared with γ-Glu-Cys
panelists [2] = assay: Quantitative sensory evaluation test of salty taste enhancement; assay type: in vivo, human
Protocol: After the test compound was dissolved, samples more acidic than a control containing no added test compound were adjusted, before further use, with NaOH to have a pH in a range of ±0.2 from the pH of the control to which no test compound was added.
The sensory evaluation scores were as follows, the control to which no test compound was added, i.e. a 0.5 g/dL sodium chloride solution: 0 points; a 0.75 g/dL sodium chloride solution: 5 points. The sensory evaluation was conducted on a scale ranging from −5 to 0 to 5, with n=5. The “initial taste” refers to the taste perceived by each panelist from the start of eating the sample to 2 seconds thereafter, while the term “middle/after taste” refers to that perceived by each panelist from 2 seconds on and after eating the same, i.e. perceived during the period including both the middle taste and the after taste. For the scoring, a linear scale method was used. In this method, the score was marked as a position on a straight line showing positions for scores ranging from −5˜0˜5. The panelists were persons who were engaged in the development of seasonings for foods for one year or longer in total, and who were capable of determining that the difference in the potency between γ-Glu-Cys-Gly and γ-Glu-Val-Gly each added to a umami taste and salty taste solution was around 10 times, while confirming the ability of these persons at regular intervals.

panelists [3] = assay: Sensory evaluation of salty taste in low salt chicken stock, use in combination with an organic acid; assay type: in vivo, human; conditions: γ-Glu-Abu 0.0040 g/dL in low salt chicken stock (salt 0.48 g/dL); control = 3, 1.25x salt = 4, 1.5x salt = 5; n=6
Protocol: The sensory evaluation tests were carried out as follows. […] A test compound in an appropriate amount was dissolved in the solution, and the salty taste strength was measured. No pH adjustment is necessary, such as the lowering of the pH, because there is no difference in pH between the solution after dissolving each test compound and the control without any added compound. […] To clarify the scale, the sensory evaluation scores were set as follows: the salty taste of the control: 3 points; the salty taste of a soup with increased salt concentration by 1.25 times as compared to that of control: 4 points; and the salty taste of a soup with increased salt concentration by 1.5 times as compared to that of the control: 5 points. The sensory evaluation was carried out using a panel of n (the number of panelists)=6. For the scoring a linear scale method was used. In this method, the score was marked as a position on a straight line showing positions for scores ranging from 1 3 5. The panelists used in this test were persons who had been engaged in the development of seasonings for foods for at least one year or longer in total, and who were capable of determining that the difference in potency between γ-[…] and γ-[…] each added to an umami and salty taste solution was around 10 times, while confirming the ability of these persons at regular intervals.

human CaSR = molecular target: T1, human CaSR (Homo sapiens, UniProt P41180, E1011Q); assay: Evaluation of CaSR agonist activity (Ca2+ fluorescence, EC50); assay type: cell-based; conditions: comparison with other dipeptides
T1 construct: expressed in transfected cells; host or cells: 293E cells (EBNA1-expressing HEK293 cells, ATCC No. CRL-10852), transient transfection with Fugene6
T1 sequence (P41180 20-1078 E1011Q): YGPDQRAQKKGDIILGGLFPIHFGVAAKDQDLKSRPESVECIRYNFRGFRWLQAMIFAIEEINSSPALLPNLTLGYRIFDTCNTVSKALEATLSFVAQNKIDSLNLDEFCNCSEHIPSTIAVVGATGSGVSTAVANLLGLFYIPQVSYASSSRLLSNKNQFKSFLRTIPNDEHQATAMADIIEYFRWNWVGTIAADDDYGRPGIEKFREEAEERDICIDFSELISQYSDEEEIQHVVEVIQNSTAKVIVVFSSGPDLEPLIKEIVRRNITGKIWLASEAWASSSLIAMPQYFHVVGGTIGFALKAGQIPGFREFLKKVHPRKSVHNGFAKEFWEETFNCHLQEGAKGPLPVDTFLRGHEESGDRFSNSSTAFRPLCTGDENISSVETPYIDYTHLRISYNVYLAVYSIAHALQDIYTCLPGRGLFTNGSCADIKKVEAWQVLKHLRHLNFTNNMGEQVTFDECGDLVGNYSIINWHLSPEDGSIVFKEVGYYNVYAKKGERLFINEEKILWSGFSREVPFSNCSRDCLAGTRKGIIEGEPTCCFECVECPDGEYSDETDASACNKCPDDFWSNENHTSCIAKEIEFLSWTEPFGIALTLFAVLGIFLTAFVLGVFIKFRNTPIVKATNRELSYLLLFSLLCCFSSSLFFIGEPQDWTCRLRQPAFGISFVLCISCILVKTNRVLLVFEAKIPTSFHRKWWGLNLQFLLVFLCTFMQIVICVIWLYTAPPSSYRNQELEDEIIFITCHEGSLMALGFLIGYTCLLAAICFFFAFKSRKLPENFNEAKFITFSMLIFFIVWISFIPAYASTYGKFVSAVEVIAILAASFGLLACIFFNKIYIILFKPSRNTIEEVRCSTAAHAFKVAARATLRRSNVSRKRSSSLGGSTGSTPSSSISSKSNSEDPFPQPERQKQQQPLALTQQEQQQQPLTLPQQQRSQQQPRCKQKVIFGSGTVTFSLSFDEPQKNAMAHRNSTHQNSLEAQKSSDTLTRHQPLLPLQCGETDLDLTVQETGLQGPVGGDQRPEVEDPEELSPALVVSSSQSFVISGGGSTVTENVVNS
Protocol: The cells were seeded into a F25 flask at 3×10^6 cells/10 mL, and allowed to stand in a CO2 incubator (5% CO2, 37° C.) for 24 hours. Then, the cells were transfected with the human CaSR-expression plasmid hCaSR/pcDNA3.1 by using a transfection reagent Fugene6 (available from Roche Company). The cells were placed in a CO2 incubator for 6 to 7 hours, and then the cells were harvested by using DMEM/Ham's-F12 containing 10% fetal calf serum. Then, the cells were seeded into a poly-D-lysine-coated 96-well plate (BD-Biocoat) at 70,000 cells/well.
The plate was allowed to stand over 24 hours in a CO2 incubator, and then the culture medium was removed from the 96-well plate into which the cells were seeded. […] Then, the indicator was incorporated into the cells by allowing the plate to stand at 37° C. for one hour, and then at room temperature for 10 minutes.
Method for the Determination of EC50:
The differences between the maximum value and minimum value of the fluorescent intensity (RFU (Max-Min)) were determined by automatic calculation of FLEX Station before and after the addition of the compound. The percentage of activities was calculated, with the RFU (Max-Min) at the time when the maximum concentration of the compound added was defined to be 100%, and the RFU (Max-Min) at the time when the 0.1% BSA-containing assay buffer containing no test compound was defined to be 0%.

panelists [4] = assay: Quantitative sensory evaluation test of kokumi-imparting activity; assay type: in vivo, human
Protocol: This quantitative sensory evaluation test was carried out as follows: The strength of the kokumi-imparting activity was measured for the cases where the test compound was mixed at concentrations of 0.001 to 0.5 g/dL with distilled water containing sodium glutamate (0.05 g/dL), inosine monophosphate (0.05 g/dL), and sodium chloride (0.5 g/dL). After the test compound was dissolved, samples more acidic than a control with no added test compound were adjusted, before further use, with NaOH to have a pH in a range of ±0.2 from the pH of the control with no added test compound. The sensory evaluation scores were as follows: control: 0 points; strong: 3 points; very strong: 5 points. The sensory evaluation was carried out using n (the number of panelists)=4. Moreover, to clarify the scale, the initial taste and the middle/after taste of γ-[…] at 0.001 g/dL were both set as 3.0 points. The term “middle/after taste” refers to the taste perceived during the period which includes the middle taste and the after taste. For the scoring, a linear scale method was employed. In this method, the score was marked as a position on a straight line showing positions for scores ranging from -5 0 5.

[5] = 0.004 g/dL in 0.5 g/dL NaCl, 0.5 g/dL NaCl = 0, 0.75 g/dL NaCl = 5, n=5
[6] = 0.005 g/dL in water with MSG 0.05, IMP 0.05, NaCl 0.5 g/dL, scale -5~0~5, n=4

CC[C@H](NC(=O)CC[C@H](N)C(=O)O)C(=O)O
Stability (in words) [1]: excellent in stability
Sensory Evaluation Profile (salty taste) (panelists [2]; 0.004 g/dL in 0.5 g/dL NaCl): The salty taste was enhanced
Strength of Salty Taste Impartment, Initial Taste (panelists [2]; [5]): 1.6 points
Strength of Salty Taste Impartment, Middle/After Taste (panelists [2]; [5]): 1.5 points
Salty taste enhancement ability (in words) (panelists [2]; comparison of γ-Glu-Val-Gly and γ-Glu-Abu): extremely well balanced salty taste enhancement
Str. of Salty Taste (score) (panelists [3]): 3.56 score
CaSR effect and activity (in words) (human CaSR): strong CaSR effect and activity comparable to that of γ-Glu-Cys
Strength of Kokumi Impartment, Initial Taste (panelists [4]; [6]): 3.8 points
Strength of Kokumi Impartment, Middle/After Taste (panelists [4]; [6]): 3.2 points
Kokumi-imparting potency (in words) (panelists [4]; in vivo): extremely high potency; also recorded: excellent kokumi-imparting activity
